Measurements published in PubChem BioAssay (NCI).
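48-hour exposure; five concentrations; linearly interpolated endpoints. TGI marks complete inhibition of growth.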

Tests used:
Assay in all cases: growth of human tumour cells (NCI), 48 h
[1] = system: NCI-H226 lung
[2] = system: LOX IMVI melanoma
[3] = system: RXF-631 renal
[4] = system: OVCAR-4 ovarian
[5] = system: SK-MEL-2 melanoma
[6] = system: HCC-2998 colon
[7] = system: HOP-92 NSCLC
[8] = system: SNB-75 CNS
[9] = system: LXFL 529 NSCLC
[10] = system: NCI-H460 lung
[11] = system: SNB-19 CNS
[12] = system: CCRF-CEM leukemia
[13] = system: SF-268 CNS
[14] = system: HCT-15 colon
[15] = system: ACHN renal
[16] = system: SW-620 colon
[17] = system: K-562 leukemia
[18] = system: UACC-62 melanoma
[19] = system: TK-10 renal
[20] = system: MOLT-4 leukemia
[21] = system: SNB-78 CNS
[22] = system: A498 renal
[23] = system: DMS 114 small cell lung
[24] = system: HT29 colon
[25] = system: OVCAR-5 ovarian
[26] = system: SF-295 CNS
[27] = system: HCT-116 colon
[28] = system: OVCAR-8 ovarian
[29] = system: NCI-H23 lung
[30] = system: MALME-3M melanoma
[31] = system: UO-31 renal
[32] = system: U251 CNS
[33] = system: HL-60(TB) leukemia
[34] = system: SN12C renal
[35] = system: KM20L2 colon
[36] = system: EKVX NSCLC
[37] = system: IGROV1 ovarian
[38] = system: RXF 393 renal
[39] = system: DLD-1 colon
[40] = system: NCI-H522 lung
[41] = system: DMS 273 small cell lung
[42] = system: M14 melanoma
[43] = system: SK-MEL-28 melanoma
[44] = system: CAKI-1 renal
[45] = system: M19-MEL melanoma
[46] = system: SR leukemia
[47] = system: A549 NSCLC
[48] = system: 786-0 renal
[49] = system: SK-MEL-5 melanoma
[50] = system: XF 498 CNS
[51] = system: SF-539 CNS
[52] = system: RPMI-8226 leukemia
[53] = system: OVCAR-3 ovarian
[54] = system: UACC-257 melanoma
[55] = system: HOP-62 NSCLC
[56] = system: COLO 205 colon
[57] = system: SK-OV-3 ovarian
[58] = system: KM12 colon
[59] = system: HOP-18 NSCLC

Measured: TGI

O=c1/c(=C/c2ccccc2F)sc2nc3ccccc3n12
not listed: [55] | [56] | [57] | [58] | [59]
> 100 µM: all other assays above

CC(=O)OCC1OC(OC2C(CSC3OC(COC(C)=O)C(OC(C)=O)C(OC(C)=O)C3OC(C)=O)OC(OC(C)=O)C(OC(C)=O)C2OC(C)=O)C(OC(C)=O)C(OC(C)=O)C1OC(C)=O (stereo not drawn)
not listed: [3] | [5] | [22] | [33] | [38] | [54] | [59]
> 100 µM: all other assays above

NNC(=O)/C(=C/c1ccc(Cl)cc1Cl)NC(=O)c1ccccc1
not listed: [3] | [35]
> 100 µM: all other assays above
